{"source": "patent US20260314597A1", "about": "“A NOVEL APPROACH TO INTERFERE IN THE PHENYLPROPANOID BIOSYNTHETIC PATHWAY TO REDUCE PINK-RIB DISORDER IN FRESH LETTUCE” (University of Florida Research Foundation, Inc., priority 2022, published 2026)", "key": {"[1]": {"system": "fresh-cut iceberg lettuce", "details": "cited from earlier work"}, "PPO [2]": {"system": "PPO", "details": "role: inhibitor; L-cysteine; cited from earlier work"}, "[3]": {"system": "chlorogenic acid concentration in homogenized lettuce tissue", "details": "L-cysteine; 24 h at 25° C.; cited from earlier work"}, "fresh-cut cherimoya": {"system": "fresh-cut cherimoya", "details": "L-cysteine 0.5% or 41.3 mM; 0° C.; cited from earlier work"}, "fresh-cut fennel": {"system": "fresh-cut fennel", "details": "L-cysteine 0.5% or 41.3 mM; 6 d at 5° C.; cited from earlier work"}, "romaine lettuce midribs": {"system": "romaine lettuce midribs", "assay": "Pink rib discoloration of romaine midribs / whole leaflets dipped 1 min, stored at 10° C.", "format": "in vivo", "procedure": "Pink rib discoloration in excised midrib segments of romaine lettuce was shown above. […] 4.3 mM of melatonin solution was prepared in water containing 0.5% DMSO (dimethyl sulfoxide), and control samples were treated with water containing 0.5% DMSO.\n1 mM of melatonin solution was prepared in water containing 0.5% DMSO (dimethyl sulfoxide) and control samples were treated with water containing 0.5% DMSO."}, "cassava roots [4]": {"system": "cassava roots", "details": "cited from earlier work"}, "loquat": {"system": "loquat", "details": "melatonin; 25 d storage at 4° C.; cited from earlier work"}, "PPO [5]": {"system": "PPO", "details": "melatonin 0.1 mM; after 2 d; cited from earlier work"}, "[6]": {"system": "nonenzymatic antioxidants, such as phenolics, flavonoids, and anthocyanins", "details": "melatonin; cited from earlier work"}, "[7]": {"system": "key enzymes in the melatonin biosynthesis pathway", "details": "strawberry; cited from earlier work"}, "cassava roots [8]": {"system": "cassava roots", "details": "melatonin 0.1 mM, cited from earlier work"}, "peach fruit": {"system": "peach fruit", "details": "cited from earlier work"}, "[9]": {"details": "melatonin, cassava root, vs untreated"}}, "note": "“Also recorded” adds a separate entry of the source. Read-outs that look alike come from different tables or passages of the source.", "data": [{"smiles": "N[C@@H](CS)C(=O)O", "note": "[L-cysteine]", "values": [{"measurement": "reduction of discoloration of midrib surface area", "setting": "[1]; L-cysteine 8.3 mM, 6 d at 8° C., vs control", "value": "greater than 80%"}, {"measurement": "delay of pink rib development", "setting": "[1]; L-cysteine 0.1% or 8.3 mM, 8° C., untreated discolored after 2 d", "value": 6, "unit": "days"}, {"measurement": "pink rib development, share of midrib surface area", "setting": "[1]; L-cysteine 0.1% or 8.3 mM, 6 d at 8° C.", "value": "< 20 % of the midrib surface area"}, {"measurement": "PPO activity", "setting": "PPO [2]", "value": "inhibited PPO activity"}, {"measurement": "chlorogenic acid concentration", "setting": "[3]", "value": "reduced chlorogenic acid concentration"}, {"measurement": "delay of pulp browning", "setting": "fresh-cut cherimoya", "value": "up to 12 d"}, {"measurement": "effect on browning of fennel", "setting": "fresh-cut fennel", "value": "no effect; also recorded: ineffective"}]}, {"smiles": "COc1ccc2[nH]cc(CCNC(C)=O)c2c1", "note": "[melatonin]", "values": [{"measurement": "pink rib discoloration vs control", "setting": "romaine lettuce midribs; melatonin 1 mM in 0.5% DMSO, 4 days", "value": "less pink rib discoloration than control samples"}, {"measurement": "pink rib discoloration vs control", "setting": "romaine lettuce midribs; melatonin 4.3 mM in 0.5% DMSO, five days, whole leaflet", "value": "less pink rib discoloration than control samples"}, {"measurement": "key enzymes in the melatonin biosynthesis pathway", "setting": "cassava roots [4]; cassava", "value": "Upregulation"}, {"measurement": "antioxidant capacity", "setting": "cassava roots [4]; [9]", "value": "increased"}, {"measurement": "reactive oxygen species (ROS) levels", "setting": "cassava roots [4]; [9]", "value": "declined"}, {"measurement": "antioxidative enzymes that reduce hydrogen peroxide accumulation", "setting": "cassava roots [4]; melatonin, cassava", "value": "activated"}, {"measurement": "chlorogenic acid concentration", "setting": "loquat", "value": "increased"}, {"measurement": "quality and lignification", "setting": "loquat", "value": "maintaining quality and delaying lignification"}, {"measurement": "PPO activity", "setting": "PPO [5]", "value": "significantly lower"}, {"measurement": "nonenzymatic antioxidants (phenolics, flavonoids, anthocyanins)", "setting": "[6]", "value": "enhances nonenzymatic antioxidants"}, {"measurement": "key enzymes in the melatonin biosynthesis pathway", "setting": "[7]", "value": "Upregulation"}, {"measurement": "time to which vascular streaking disorder was delayed", "setting": "cassava roots [8]; 28° C., untreated control 6 h", "value": 12, "unit": "h"}, {"measurement": "delay of vascular streaking / discoloration", "setting": "cassava roots [8]; vs untreated control", "value": "delayed development of discoloration; also recorded: delayed twice as long as untreated control slices"}, {"measurement": "lipid peroxidation", "setting": "peach fruit; melatonin 0.1 mM, via increased enzyme activity", "value": "inhibited lipid peroxidation"}, {"measurement": "senescence", "setting": "peach fruit; melatonin 0.1 mM", "value": "delayed senescence"}, {"measurement": "total phenolics", "setting": "peach fruit; melatonin 0.1 mM", "value": "maintained total phenolics"}, {"measurement": "antioxidant capacity", "setting": "peach fruit; melatonin, vs untreated", "value": "increased"}, {"measurement": "reactive oxygen species (ROS) levels", "setting": "peach fruit; melatonin, vs untreated", "value": "declined"}]}]}
